Results as given in patent US20220031871A1, “ANTIBODIES FOR CHELATED RADIONUCLIDES AND CLEARING AGENTS” (Hoffmann-La Roche Inc., priority 2018, published 2022).
Like-named read-outs stand apart in the source and are kept apart here.

How the values were obtained:
[1] = Stability of metal-DOTAM in blood (spontaneous Ca-DOTAM formation); assay type: in vitro ADME, human
Source text: (§1) The initial choice for quenching was Cu, thus replacing unchelated DOTAM with quenched, non-competing Cu-DOTAM, and a large number of studies within the CEA-PRIT program were executed using this condition. However, it was later discovered that the Cu-DOTAM complex was, in fact, not stable in vivo, and a study was undertaken to assess its stability compared with alternative quenching ions in human and mouse serum, plasma, and blood.

[2] = as above; assay type: in vitro ADME, mouse
Source text: as §1

| SMILES | spontaneous Ca-DOTAM formation [1] | spontaneous Ca-DOTAM formation [2] | spontaneous Ca-DOTAM formation ([1]; human blood, 35 minutes p.i.) | spontaneous Ca-DOTAM formation ([2]; mouse blood, 35 minutes p.i.) |
| --- | --- | --- | --- | --- |
| NC(=O)CN1CCN(CC(N)=O)CCN(CC(N)=O)CCN(CC(N)=O)CC1.[Cu+2] [Cu-DOTAM] | ~30% | approximately 25% |  |  |
| NC(=O)CN1CCN(CC(N)=O)CCN(CC(N)=O)CCN(CC(N)=O)CC1.[Pb+2] [Pb-DOTAM] |  |  | 4% | 4% |
| NC(=O)CN1CCN(CC(N)=O)CCN(CC(N)=O)CCN(CC(N)=O)CC1.[Zn+2] [Zn-DOTAM] | 0% | 0% |  |  |
